Source: article PMC5562305, “Impact of novel palmitoylated prolactin-releasing peptide analogs on metabolic changes in mice with diet-induced obesity” (PLoS ONE, 2017)
Values joined by “and” are separate entries in the source; they are usually repeats but may differ in a detail not shown here. Identical values can stand only once. Like-named read-outs stand apart in the source and are kept apart here. Starred links: 1 amine or outer side, 2 acyl side, 3 side chain; linkers in the order of their positions; H or OH if unused. Residues, ends and D or L forms follow the SMILES beside them. Groups on a side chain read outwards from the residue. *: point of attachment. TTDA(Palmitoyl) = CCCCCCCCCCCCCCCC(=O)NCCCOCCOCCOCCCN*; γGlu = O=C(O)[C@H](CCC(=O)[*:2])N[*:1]; Palmitoyl = CCCCCCCCCCCCCCCC(=O)*; Suc = O=C(CCC(=O)[*:2])[*:1]

Experiments:
[1] = target: T1, GPR10 (Homo sapiens, UniProt P49683); test: Competitive binding of 125I-human PrRP31 to plated CHO-K1 cells expressing GPR10; parameters: host or cells: CHO-K1; details: for Ki: CHO-K1 cells, 0.03 nM radioligand, 60 min 25°C, Cheng-Prusoff, mean ± SEM of at least three experiments, SEM; for % binding human PrRP31 (GPR10): Ki relative to human PrRP31 = 100; for 125I-human PrRP31 binding to human GPR10, Ki: single experiments (replicates listed below each other)
T1 sequence (P49683 1-370): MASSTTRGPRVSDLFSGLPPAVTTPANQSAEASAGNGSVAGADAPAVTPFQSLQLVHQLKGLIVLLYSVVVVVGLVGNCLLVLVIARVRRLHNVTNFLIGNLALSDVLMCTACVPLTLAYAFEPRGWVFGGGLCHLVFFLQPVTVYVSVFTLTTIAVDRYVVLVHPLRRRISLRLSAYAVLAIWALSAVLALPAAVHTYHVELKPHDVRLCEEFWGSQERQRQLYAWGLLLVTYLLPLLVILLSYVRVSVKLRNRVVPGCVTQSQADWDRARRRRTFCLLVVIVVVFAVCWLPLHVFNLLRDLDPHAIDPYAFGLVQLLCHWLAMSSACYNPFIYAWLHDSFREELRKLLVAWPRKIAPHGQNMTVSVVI
Description: (§1) CHO-K1 cells expressing the GPR10 receptor (Thermo Fisher Scientific Inc., Waltham, MA, USA) were grown according to the manufacturer's instructions. Saturation and competitive binding experiments were performed according to the methods of Motulsky and Neubig. […] The experiments were performed on plated cells that were incubated for 60 min at 25°C. Non-specific binding was determined using 10^−5 M PrRP31. The binding assays involving human NPFF2 receptor membranes obtained from Perkin Elmer were performed as described in [18].
(§2) Data are presented as the means ± SEM. The competitive binding curves were plotted using GraphPad software (San Diego, CA, USA), and the best fits were compared for single-binding-site models (IC50 values were obtained from nonlinear regression analysis). Inhibition constants (Ki) were calculated from the IC50 values using the Cheng-Prusoff equation [23]. The concentration of the radioligand was 0.1 nM for cell membranes of CHO-K1 cells overexpressing NPFF2 and 0.03 nM for CHO-K1 cells overexpressing GPR10.

[2] = target: T2, human NPFF2 (Homo sapiens, UniProt Q9Y5X5); test: Competitive binding of 125I-1DMe to human NPFF2 receptor membranes; details: for % binding human PrRP31 (NPFF2): Ki relative to human PrRP31 = 100
T2 construct: purchased Perkin Elmer; host or cells: CHO-K1 cell membranes
Description: as §1, §2

[3] = Cumulative food intake of DIO mice during 2-week SC treatment; type: in vivo, C57BL/6 mice; details: two weeks of SC treatment, 5 mg/kg twice a day, in words
Description: (§3) Inbred C57BL/6 male mice that were 3 weeks old were obtained from Charles River Laboratories (Sulzfeld, Germany). […] From 8 weeks of age, the mice were fed in house made high-fat (HF) diet to induce obesity. […] After twelve weeks of HF-diet feeding, two weeks of SC administration of lipidized PrRP analogs was initiated while the mice were kept on the HF diet. The following experimental groups were established: […] Food intake and BW were monitored daily during the dosing period.

[4] = Body weight of DIO mice during 2-week SC treatment; type: in vivo, C57BL/6 mice; details: for Decrease of average BW at the end of the experiment: 5 mg/kg SC twice a day, 2 weeks
Description: as §3

[5] = target: T1, GPR10; test: Beta-lactamase-dependent FRET assay (bla reporter gene) in CHO-K1 cells overexpressing GPR10; type: cell-based; parameters: expressed in transfected cells; host or cells: CHO-K1
Description: CHO-K1 cells overexpressing GPR10 were plated at 40,000 cells/well in 128 μl of assay medium (DMEM containing 10% dialyzed FBS, 0.1 mM NEAA, 25 mM HEPES, 1% penicillin/streptomycin, and 2 mM L-glutamine) in a 96-well plate and were incubated for 20 h at 37°C/5% CO2. The assay was performed according to the manufacturer's protocol.
The results from the lactamase assay were analyzed using nonlinear regression by log agonist vs. response using GraphPad software.

[6] = Adipose tissue and liver weights in DIO mice at the end of the experiment; type: in vivo, C57BL/6 mice; details: 5 mg/kg SC twice a day, 2 weeks, n = 10, mean ± SEM
Description: From 8 weeks of age, the mice were fed in house made high-fat (HF) diet to induce obesity. […] After twelve weeks of HF-diet feeding, two weeks of SC administration of lipidized PrRP analogs was initiated while the mice were kept on the HF diet. The following experimental groups were established: […] Food intake and BW were monitored daily during the dosing period. At the end of the experiment, the mice were sacrificed by decapitation. The trunk blood was collected, and the blood plasma was separated and stored at -20°C. The visceral adipose tissues (VAT) (from abdominal part), subcutaneous adipose tissues (SCAT) (all adipose tissue depots under the skin), perirenal adipose tissues, interscapular brown adipose tissues (BAT), and livers of all of the mice were dissected, weighed, flash-frozen in liquid nitrogen, and stored at -70°C for later extraction of RNA.

[7] = average of the single experiments, read-out: Activation of bla reporter gene in GPR10 overexpressing cells, EC50, AVERAGE
[8] = average of the single experiments

T2 sequence (Q9Y5X5 whole entry): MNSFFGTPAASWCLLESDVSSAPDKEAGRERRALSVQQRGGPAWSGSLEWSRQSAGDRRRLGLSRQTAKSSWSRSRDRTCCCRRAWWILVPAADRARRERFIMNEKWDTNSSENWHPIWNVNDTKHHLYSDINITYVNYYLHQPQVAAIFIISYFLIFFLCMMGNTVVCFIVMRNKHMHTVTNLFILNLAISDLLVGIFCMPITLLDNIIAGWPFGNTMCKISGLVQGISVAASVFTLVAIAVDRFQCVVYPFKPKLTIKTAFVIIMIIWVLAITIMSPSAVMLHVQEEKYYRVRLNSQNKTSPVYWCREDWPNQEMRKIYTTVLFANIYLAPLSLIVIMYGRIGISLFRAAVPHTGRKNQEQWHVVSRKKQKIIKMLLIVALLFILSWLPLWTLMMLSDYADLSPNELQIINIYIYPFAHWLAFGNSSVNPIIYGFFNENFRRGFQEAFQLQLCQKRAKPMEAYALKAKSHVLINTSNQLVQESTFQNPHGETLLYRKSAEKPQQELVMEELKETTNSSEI

CCCCCCCCCCCCCCCC(=O)N[C@@H](CCC(=O)NCCCC[C@H](NC(=O)[C@@H](NC(=O)[C@H](CCC(=O)O)NC(=O)[C@H](CCSC)NC(=O)[C@H](CO)NC(=O)[C@H](Cc1c[nH]cn1)NC(=O)[C@H](CCCNC(=N)N)NC(=O)[C@H](Cc1c[nH]cn1)NC(=O)[C@@H](NC(=O)[C@H](CCCNC(=N)N)NC(=O)[C@@H](N)CO)[C@@H](C)O)[C@@H](C)CC)C(=O)N[C@H](C(=O)N1CCC[C@H]1C(=O)N[C@@H](CC(=O)O)C(=O)N[C@H](C(=O)N[C@@H](CC(N)=O)C(=O)N1CCC[C@H]1C(=O)N[C@@H](C)C(=O)N[C@@H](Cc1c[nH]c2ccccc12)C(=O)N[C@@H](Cc1ccc(O)cc1)C(=O)N[C@@H](C)C(=O)N[C@@H](CO)C(=O)N[C@@H](CCCNC(=N)N)C(=O)NCC(=O)N[C@H](C(=O)N[C@@H](CCCNC(=N)N)C(=O)N1CCC[C@H]1C(=O)N[C@H](C(=O)NCC(=O)N[C@@H](CCCNC(=N)N)C(=O)N[C@@H](Cc1ccccc1)C(N)=O)C(C)C)[C@@H](C)CC)[C@@H](C)CC)[C@@H](C)O)C(=O)O [analog 1] (H-SRTHRHSMEIK([γGlu-Palmitoyl])TPDINPAWYASRGIRPVGRF-NH2; N-terminus assumed)
Ki [1]: 5.01 ± 1.03 nM
% binding human PrRP31 (GPR10) [1]: 91%
125I-human PrRP31 binding to human GPR10, Ki [1]: 9.92 nM and 5.47 nM and 4.23 nM and 3.01 nM and 1.75 nM and 3.77 nM and 6.96 nM
% binding human PrRP31 (NPFF2) [2]: 128%
Ki ([2]; membranes of CHO-K1 cells overexpressing NPFF2, 0.1 nM radioligand, Cheng-Prusoff, mean ± SEM, SEM): 39.1 ± 23.1 nM
Food intake compared to the saline-treated control group [3]: did not reach statistical significance
Decrease of average BW at the end of the experiment [4]: 12%
EC50 [5, 7]: 0.0463 nM
Liver weight [6]: 1.27 ± 0.05 g
Perirenal AT [6]: 2.72 ± 0.11 % of BW
Total AT [6]: 14.59 ± 0.32 % of BW

CCCCCCCCCCCCCCCC(=O)NCCCOCCOCCOCCCNC(=O)CCC(=O)NCCCC[C@H](NC(=O)[C@@H](NC(=O)[C@H](CCC(=O)O)NC(=O)[C@H](CCSC)NC(=O)[C@H](CO)NC(=O)[C@H](Cc1c[nH]cn1)NC(=O)[C@H](CCCNC(=N)N)NC(=O)[C@H](Cc1c[nH]cn1)NC(=O)[C@@H](NC(=O)[C@H](CCCNC(=N)N)NC(=O)[C@@H](N)CO)[C@@H](C)O)[C@@H](C)CC)C(=O)N[C@H](C(=O)N1CCC[C@H]1C(=O)N[C@@H](CC(=O)O)C(=O)N[C@H](C(=O)N[C@@H](CC(N)=O)C(=O)N1CCC[C@H]1C(=O)N[C@@H](C)C(=O)N[C@@H](Cc1c[nH]c2ccccc12)C(=O)N[C@@H](Cc1ccc(O)cc1)C(=O)N[C@@H](C)C(=O)N[C@@H](CO)C(=O)N[C@@H](CCCNC(=N)N)C(=O)NCC(=O)N[C@H](C(=O)N[C@@H](CCCNC(=N)N)C(=O)N1CCC[C@H]1C(=O)N[C@H](C(=O)NCC(=O)N[C@@H](CCCNC(=N)N)C(=O)N[C@@H](Cc1ccccc1)C(N)=O)C(C)C)[C@@H](C)CC)[C@@H](C)CC)[C@@H](C)O [analog 2] (H-SRTHRHSMEIK([Suc-TTDA(Palmitoyl)])TPDINPAWYASRGIRPVGRF-NH2; N-terminus assumed)
Ki [1]: 3.79 ± 0.47 nM
% binding human PrRP31 (GPR10) [1]: 121%
125I-human PrRP31 binding to human GPR10, Ki [1]: 4.698 nM and 3.31 nM and 3.352 nM
% binding human PrRP31 (NPFF2) [2]: 761%
Ki [2, 8]: 6.57 nM
Food intake compared to the saline-treated control group [3]: significantly reduced
Decrease of average BW at the end of the experiment [4]: 11.75%
EC50 [5, 7]: 0.0835 nM
Liver weight [6]: 1.31 ± 0.06 g
Perirenal AT [6]: 2.73 ± 0.17 % of BW
Total AT [6]: 15.70 ± 0.53 % of BW

CCCCCCCCCCCCCCCC(=O)NCCCOCCOCCOCCCNC(=O)CCC(=O)NCCCC[C@H](NC(=O)[C@@H](NC(=O)[C@H](CCC(=O)O)NC(=O)[C@H](CCSC)NC(=O)[C@H](CO)NC(=O)[C@H](Cc1c[nH]cn1)NC(=O)[C@H](CCCNC(=N)N)NC(=O)[C@H](Cc1c[nH]cn1)NC(=O)[C@@H](NC(=O)[C@H](CCCNC(=N)N)NC(=O)[C@H](CO)NC(=O)CCC(=O)NCCCOCCOCCOCCCNC(=O)CCCCCCCCCCCCCCC)[C@@H](C)O)[C@@H](C)CC)C(=O)N[C@H](C(=O)N1CCC[C@H]1C(=O)N[C@@H](CC(=O)O)C(=O)N[C@H](C(=O)N[C@@H](CC(N)=O)C(=O)N1CCC[C@H]1C(=O)N[C@@H](C)C(=O)N[C@@H](Cc1c[nH]c2ccccc12)C(=O)N[C@@H](Cc1ccc(O)cc1)C(=O)N[C@@H](C)C(=O)N[C@@H](CO)C(=O)N[C@@H](CCCNC(=N)N)C(=O)NCC(=O)N[C@H](C(=O)N[C@@H](CCCNC(=N)N)C(=O)N1CCC[C@H]1C(=O)N[C@H](C(=O)NCC(=O)N[C@@H](CCCNC(=N)N)C(=O)N[C@@H](Cc1ccccc1)C(N)=O)C(C)C)[C@@H](C)CC)[C@@H](C)CC)[C@@H](C)O [analog 3] ({TTDA(Palmitoyl)-Suc}-SRTHRHSMEIK([Suc-TTDA(Palmitoyl)])TPDINPAWYASRGIRPVGRF-NH2)
Ki [1]: 32.4 ± 3.57 nM
% binding human PrRP31 (GPR10) [1]: 14%
125I-human PrRP31 binding to human GPR10, Ki [1]: 39 nM and 26.7 nM and 31.5 nM
% binding human PrRP31 (NPFF2) [2]: 580%
Ki [2, 8]: 8.63 nM
Food intake compared to the saline-treated control group [3]: did not have any significant effects
Effect on BW ([4]; two weeks of SC treatment, 5 mg/kg twice a day, in words): did not have any significant effects
EC50 ([5]; CHO-K1 cells, mean ± SEM of at least three experiments, SEM, read-out: Activation of bla reporter gene in GPR10 overexpressing cells, EC50): 0.284 ± 0.054 nM
Liver weight [6]: 1.58 ± 0.09 g
Perirenal AT [6]: 3.09 ± 0.16 % of BW
Total AT [6]: 16.13 ± 0.38 % of BW
